US12421211B2, “Heterocyclic compounds” (Hoffmann-La Roche Inc., priority 2021, dated 2025)
Structures can show the parent of a compound that is named as a salt.

test system: Acinetobacter baumannii ATCC17961; test: Antimicrobial susceptibility testing: 90% growth inhibitory concentration (IC90) determination; type: cell-based; conditions: Acinetobacter baumannii, ATCC17961, 16 h, 90% growth inhibitory concentration, Acinetobacter baumannii ATCC17961, Iso-Sensitest broth, OD 600 nm over 16 h; read-out: ATCC 17961 IC90
Method in brief: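 Growth inhibition derived in log phase from OD600 kinetics (every 20 minutes, 16h, 35±2° C) of ATCC17961 in Iso-Sensitest medium, inoculum ~5×10^5 CFU/ml. Compounds tested as twofold series, 10 points (e.g. 50 to 0.097 μM final); IC90 and IC50 reported.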

| Structure (SMILES) | IC90 [nM] |
| --- | --- |
| COCCn1ncc(-c2ccc(-c3cnc(C(=O)Nc4ccc(C(=O)N5CCN(C(=O)C6(O)CCNCC6)CC5)c(Cl)c4)n3C)c(F)c2F)c1C [Example D24, N-[3-chloro-4-[4-(4-hydroxypiperidine-4-carbonyl)piperazine-1-carbonyl]phenyl]-5-[2,3-difluoro-4-[1-(2-methoxyethyl)-5-methyl-pyrazol-4-yl]phenyl]-1-methyl-imidazole-2-carboxamide; formic acid] | 73 |
| COCCn1ncc(-c2ccc(-c3cnc(C(=O)Nc4ccc(C(=O)N5CCN(C(=O)C6CC[N+](CC(=O)O)(CC7CNC7)CC6)CC5)c(Cl)c4)n3C)c(F)c2Cl)c1C (stereo not shown) [Example B28, 2-[1-(azetidin-3-ylmethyl)-4-[4-[2-chloro-4-[[5-[3-chloro-2-fluoro-4-[1-(2-methoxyethyl)-5-methyl-pyrazol-4-yl]phenyl]-1-methyl-imidazole-2-carbonyl]amino]benzoyl]piperazine-1-carbonyl]piperidin-1-ium-1-yl]acetic acid; formate] | 230 |
| COCCn1ncc(-c2ccc(-c3cnc(C(=O)Nc4ccc(C(=O)N5CCN(C(=O)[C@H]6[C@@H]7C[N+](C)(C)C[C@@H]76)CC5)c(Cl)c4)n3C)c(F)c2F)c1C [Example B26, N-[3-chloro-4-[4-[(1R,5S)-3,3-dimethyl-3-azoniabicyclo[3.10]hexane-6-carbonyl]piperazine-1-carbonyl]phenyl]-5-[2,3-difluoro-4-[1-(2-methoxyethyl)-5-methyl-pyrazol-4-yl]phenyl]-1-methyl-imidazole-2-carboxamide; formate] | 64 |
| COCCn1ncc(-c2ccc(-c3cnc(C(=O)Nc4ccc(C(=O)N[C@H]5[C@@H]6CN(C(=O)N[C@@H]7CNC[C@H]7O)C[C@@H]65)c(Cl)c4)n3C)c(F)c2F)c1C [Example E22, (1S,5R)-6-[[2-chloro-4-[[5-[2,3-difluoro-4-[1-(2-methoxyethyl)-5-methyl-pyrazol-4-yl]phenyl]-1-methyl-imidazole-2-carbonyl]amino]benzoyl]amino]-N-[(3R,4R)-4-hydroxypyrrolidin-3-yl]-3-azabicyclo[3.1.0] hexane-3-carboxamide] | 59 |
| COCCn1cc(-c2ccc(-c3cnc(C(=O)Nc4ccc(C(=O)N5CCC(NC(=O)[C@@H]6C[C@@H](O)CN6)CC5)c(Cl)c4)n3C)c(F)c2F)c(C)n1 [Example D23, N-[3-chloro-4-[4-[[(2S,4R)-4-hydroxypyrrolidine-2-carbonyl]amino]piperidine-1-carbonyl]phenyl]-5-[2,3-difluoro-4-[1-(2-methoxyethyl)-3-methyl-pyrazol-4-yl]phenyl]-1-methyl-imidazole-2-carboxamide; formic acid] | 680 |
| COCCn1ncc(-c2ccc(-c3cnc(C(=O)Nc4ccc(C(=O)N5CCN(C(=O)[C@@H]6CCC(=O)N6)CC5)c(Cl)c4)n3C)c(F)c2F)c1C [Example D26, N-[3-chloro-4-[4-[(2S)-5-oxopyrrolidine-2-carbonyl]piperazine-1-carbonyl]phenyl]-5-[2,3-difluoro-4-[1-(2-methoxyethyl)-5-methyl-pyrazol-4-yl]phenyl]-1-methyl-imidazole-2-carboxamide; 2,2,2-trifluoroacetic acid] | 190 |
| COCCn1ncc(-c2ccc(-c3cnc(C(=O)Nc4ccc(C(=O)NCC5CCNCC5)c(Cl)c4)n3C)c(F)c2F)c1C [Example E10, N-[3-chloro-4-(4-piperidylmethyl-carbamoyl)phenyl]-5-[2,3-difluoro-4-[1-(2-methoxyethyl)-5-methyl-pyrazol-4-yl]phenyl]-1-methyl-imidazole-2-carboxamide; 2,2,2-trifluoroacetic acid] | 170 |

Second part, the compound after the results:

| IC90 [nM] | Structure (SMILES) |
| --- | --- |
| 1100 | Cc1nn(CC(=O)Nc2ncccn2)cc1-c1ccc(-c2cnc(C(=O)Nc3ccc(C(=O)N4CCN(C(=O)C5CC[N+](C)(C)CC5)CC4)c(Cl)c3)n2C)c(F)c1F [Example G16, N-[3-chloro-4-[4-(1,1-dimethylpiperidin-1-ium-4-carbonyl)piperazine-1-carbonyl]phenyl]-5-[2,3-difluoro-4-[3-methyl-1-[2-oxo-2-(pyrimidin-2-ylamino)ethyl]pyrazol-4-yl]phenyl]-1-methyl-imidazole-2-carboxamide; formate] |
| 610 | Cc1nn(-c2ccc(N)cn2)cc1-c1ccc(-c2cnc(C(=O)Nc3ccc(C(=O)N4CCN(C(=O)C5CC[N+](C)(C)CC5)CC4)c(Cl)c3)n2C)c(F)c1F [Example F40, 5-[4-[1-(5-amino-2-pyridyl)-3-methyl-pyrazol-4-yl]-2,3-difluoro-phenyl]-N-[3-chloro-4-[4-(1,1-dimethylpiperidin-1-ium-4-carbonyl)piperazine-1-carbonyl]phenyl]-1-methyl-imidazole-2-carboxamide; chloride] |
| 120 | Cc1nn(CC(=O)Nc2nccs2)cc1-c1ccc(-c2cnc(C(=O)Nc3ccc(C(=O)N4CCN(C(=O)C5CC[N+](C)(C)CC5)CC4)c(Cl)c3)n2C)c(F)c1F [Example G10, N-[3-chloro-4-[4-(1,1-dimethylpiperidin-1-ium-4-carbonyl)piperazine-1-carbonyl]phenyl]-5-[2,3-difluoro-4-[3-methyl-1-[2-oxo-2-(thiazol-2-ylamino)ethyl]pyrazol-4-yl]phenyl]-1-methyl-imidazole-2-carboxamide; formate] |
| 670 | Cc1nn(CC(=O)NC2CCCOC2)cc1-c1ccc(-c2cnc(C(=O)Nc3ccc(C(=O)N4CCN(C(=O)C5CC[N+](C)(C)CC5)CC4)c(Cl)c3)n2C)c(F)c1F (stereo not shown) [Example G22, N-[3-chloro-4-[4-(1,1-dimethylpiperidin-1-ium-4-carbonyl)piperazine-1-carbonyl]phenyl]-5-[2,3-difluoro-4-[3-methyl-1-[2-oxo-2-(tetrahydropyran-3-ylamino)ethyl]pyrazol-4-yl]phenyl]-1-methyl-imidazole-2-carboxamide; formate] |
| 550 | COc1ccccc1NC(=O)Cn1cc(-c2ccc(-c3cnc(C(=O)Nc4ccc(C(=O)N5CCN(C(=O)C6CC[N+](C)(C)CC6)CC5)c(Cl)c4)n3C)c(F)c2F)c(C)n1 [Example G7, N-[3-chloro-4-[4-(1,1-dimethylpiperidin-1-ium-4-carbonyl)piperazine-1-carbonyl]phenyl]-5-[2,3-difluoro-4-[1-[2-(2-methoxyanilino)-2-oxo-ethyl]-3-methyl-pyrazol-4-yl]phenyl]-1-methyl-imidazole-2-carboxamide; formate] |
| 150 | Cc1c(-c2ccc(-c3cnc(C(=O)Nc4ccc(C(=O)N5CCN(C(=O)C6CC[N+](C)(C)CC6)CC5)c(Cl)c4)n3C)c(F)c2F)cnn1CCNC(=O)c1ccccn1 [Example H1, N-[2-[4-[4-[2-[[3-chloro-4-[4-(1,1-dimethylpiperidin-1-ium-4-carbonyl)piperazine-1-carbonyl]phenyl]carbamoyl]-3-methyl-imidazol-4-yl]-2,3-difluoro-phenyl]-5-methyl-pyrazol-1-yl]ethyl]pyridine-2-carboxamide formate] |
| 450 | Cc1nn(CC(=O)Nc2cnn(C)c2)cc1-c1ccc(-c2cnc(C(=O)Nc3ccc(C(=O)N4CCN(C(=O)C5CC[N+](C)(C)CC5)CC4)c(Cl)c3)n2C)c(F)c1F [Example G12, N-[3-chloro-4-[4-(1,1-dimethylpiperidin-1-ium-4-carbonyl)piperazine-1-carbonyl]phenyl]-5-[2,3-difluoro-4-[3-methyl-1-[2-[(1-methylpyrazol-4-yl)amino]-2-oxo-ethyl]pyrazol-4-yl]phenyl]-1-methyl-imidazole-2-carboxamide; formate] |
| 1200 | COCCn1cc(-c2ccc(-c3cnc(C(=O)Nc4ccc(C(=O)N5CCN(C(=O)C6CC[N+](C)(C)CC6)CC5)c(Cl)c4)n3C)c(F)c2F)c(CO)n1 [Example F25, N-[3-chloro-4-[4-(1,1-dimethylpiperidin-1-ium-4-carbonyl)piperazine-1-carbonyl]phenyl]-5-[2,3-difluoro-4-[3-(hydroxymethyl)-1-(2-methoxyethyl)pyrazol-4-yl]phenyl]-1-methyl-imidazole-2-carboxamide; formate] |
| 160 | Cc1nn(CCOC(F)F)cc1-c1ccc(-c2cnc(C(=O)Nc3ccc(C(=O)N4CCN(C(=O)[C@@H]5C[C@@H](O)C[N+]5(C)C)CC4)c(Cl)c3)n2C)c(F)c1F [Example F9, N-[3-chloro-4-[4-[(2S,4R)-4-hydroxy-1,1-dimethyl-pyrrolidin-1-ium-2-carbonyl]piperazine-1-carbonyl]phenyl]-5-[4-[1-[2-(difluoro-methoxy)ethyl]-3-methyl-pyrazol-4-yl]-2,3-difluoro-phenyl]-1-methyl-imidazole-2-carboxamide; formate] |
| 210 | Cc1n[nH]cc1-c1ccc(-c2cnc(C(=O)Nc3ccc(C(=O)N4CCN(C(=O)C[N+](C)(C)C)CC4)c(Cl)c3)n2C)cc1 [Example F51, [2-[4-[2-chloro-4-[[1-methyl-5-[4-(3-methyl-1H-pyrazol-4-yl)phenyl]imidazole-2-carbonyl]amino]benzoyl]piperazin-1-yl]-2-oxo-ethyl]-trimethyl-ammonium; formate] |

same assay, conditions: Acinetobacter baumannii, ATCC17961, 16 h, read-out: ATCC 17961 IC90

| Structure (SMILES) | IC90 [nM] |
| --- | --- |
| COCCn1ncc(-c2ccc(-c3cnc(C(=O)Nc4ccc(C(=O)N5CCN(C(=O)CCC[N+](CCCCN)(CCCCN)CC(=O)O)CC5C)c(Cl)c4)n3C)c(F)c2F)c1C (stereo not shown) [Example O3, bis(4-aminobutyl)-(carboxymethyl)-[4-[4-[2-chloro-4-[[5-[2,3-difluoro-4-[1-(2-methoxyethyl)-5-methyl-pyrazol-4-yl]phenyl]-1-methyl-imidazole-2-carbonyl]amino]benzoyl]-3-methyl-piperazino]-4-keto-butyl]ammonium formate] | 113 |
| Cc1c(-c2cnc(C(=O)Nc3ccc(C(=O)N4CCN(C(=O)CCC[N+](C)(CCCN)CC(=O)O)CC4)c(Cl)c3)n2C)ccc(-c2cnn(CCOC(F)F)c2C)c1F (stereo not shown) [Example N3, 3-aminopropyl-(carboxymethyl)-[4-[4-[2-chloro-4-[[5-[4-[1-[2-(difluoromethoxy)ethyl]-5-methyl-pyrazol-4-yl]-3-fluoro-2-methyl-phenyl]-1-methyl-imidazole-2-carbonyl]amino]benzoyl]piperazin-1-yl]-4-oxo-butyl]-methyl-ammonium; formate] | 352 |
